Assay: STZ-induced type I diabetes in rats, blood glucose concentration
Format: in vivo, rat
Settings: Sprague-Dawley male rats, single intra-peritoneal injection of 70 mg/kg STZ, seven days following the injection, tail vein blood
Text: Experimental type I diabetes mellitus was induced in rats by using Streptozotocin (STZ), a N-nitroso derivative of D-glucosamine. Streptozotocin causes rapid necrosis in pancreatic β-cells of islets of Langerhans (Okamoto, 1985, Bioessays 2:15-21). STZ has been widely used to provoke insulin-dependent diabetes conditions in various laboratory animals, and animals treated with STZ are recognized in the art as a model of diabetes mellitus (Like and Rossini, 1976, Science 193:415-417).
The design of the approach to compare sera from diabetic and healthy rats is illustrated in FIG. 4. Sprague-Dawley male rats aged 10-12 weeks were randomly allocated in two groups. Rats from one group received a single intra-peritonial injection of 70 mg/kg STZ (Sigma-Aldrich, St. Louis, Mo., USA) dissolved in freshly prepared 50 mM citrate buffer (pH, 4.0). Animals in control group received an equivalent volume of the citrate buffer. Seven days following the injection, blood samples were derived from a tail vein of the control and STZ treated animals. Development of the diabetic conditions in STZ treated animals was confirmed by blood glucose concentration measurements.

CN(N=O)C(=O)N[C@H]1C(O)O[C@H](CO)[C@@H](O)[C@@H]1O (mixture of isomers) [STZ, Streptozotocin]
blood glucose levels (hyperglycemia): at least 300 mg/dl

From patent US20100009348A1, “Methods and Constructs for Analyzing Biological Activities of Biological Specimens and Determining States of Organism” (ATTAGENE, INC., priority 2005, published 2010)
